Data published in patent publication US9481648B2, “Kinase inhibitors” (Respivert Limited, priority 2013, dated 2016).
Where two headings read alike, the source gives them in different places.

What was measured:
[1] = target: p38 MAPKα (MAPK14) (Homo sapiens (Human), UniProt Q16539); assay: p38 MAPKα enzyme inhibition (FRET, Z-LYTE; Method 2); format: biochemical
[2] = tested on: TNBS-induced colitis in BDF1 mice; assay: TNBS-induced colitis in mice (in vivo iv); parameters: species or system mouse; conditions: for inflammatory cell infiltrate in the reticular and laminar propria zones / ulcer grade and epithelial repair compared to the vehicle control: 5 mg/kg orally, 2 days; for inflammatory cell infiltrate in the reticular and laminar propria zones / ulcer grade and epithelial repair compared to the vehicle control / activity in in vivo model of colonic inflammation (histopathology analysis): TNBS-induced colitis, mice; for LP inflammation / Ulcer grade: TNBS-induced colitis in mice; for activity in in vivo model of colonic inflammation (histopathology analysis): conducted over 2 days
Description: Non-fasted, 10-12 week old, male BDF1 mice are dosed by oral gavage twice daily with either vehicle (5 mL/kg), reference item (Budesonide 2.5 mg/kg) or test compound (1 or 5 mg/kg) one day before (Day −1) stimulation of the inflammatory response by treatment with 2,4,6-trinitrobenzenesulphonic acid (TNBS) (15 mg/mL in 50% ethanol/50% saline). On Day 0 of the study TNBS (200 μL) is administered intra-colonically via a plastic catheter with BID dosing of the vehicle, reference or test compound continuing for 2 or 4 days. During the study, animals are weighed every day and stool observations are made and recorded as a score, based on stool consistency. At the time of sacrifice on Day 2 (or Day 4), the large intestine is removed and the length and weight recorded. Sections of the colon are taken for histopathology scoring to determine disease severity.

[3] = tested on: adoptive transfer (CD45RBhigh cells) colitis in SCID mice; assay: Adoptive transfer in mice (in vivo v); parameters: species or system mouse; conditions: for % Inhibition (of the induction window between naïve and vehicle animals): colon weight:length
Description: On Study day 0, female Balb/C mice are terminated and spleens obtained for CD45RB^high cell isolation (Using SCID IBD cell Separation protocol). Approximately 4×10^5 cells/mL CD45RB^high cells are then injected intraperitoneally (100 μL/mouse) into female SCID animals. On study day 14, mice are weighed and randomized into treatment groups based on body weight. On Day 14, compounds are administered BID, via oral gavage, in a peanut oil vehicle at the dose levels outlined below in Tables 6a and 6b and a dose volume of 5 mL/kg. Treatment continues until study day 42, at which point the animals are necropsied 4 hours after the morning administration. The colon length and weight are recorded and used as a secondary endpoint in the study as a measurement of colon oedema. The colon is then divided into six cross-sections, four of which are used for histopathology scoring (primary endpoint) and two are homogenised for cytokine analysis. Data shown is the % inhibition of the induction window between naïve animals and vehicle animals, where higher inhibition implies closer to the non-diseased, naïve, phenotype.

[4] = Plasma pharmacokinetics in rats, single intravenous or oral administration; format: in vivo, rat (male Wistar); conditions: for C0: intravenous 0.25 mg/kg in 5% DMSO-7.5% Solutol HS15-87.5% normal saline; for Vd: read-out: Vss; for Fpo: oral 5 mg/kg, vehicle C (Example 4) or B
Description: Studies were conducted by Sai Life Sciences (Hinjewadi, Pune, India) to investigate the plasma pharmacokinetics and total colon tissue distribution of compounds of the invention. In particular, pharmacokinetic studies were carried out in: • male C57BL/6 mice, following a single oral administration; and • male Wistar rats following a single intravenous or oral administration.

[5] = target: CYP3A4 (Homo sapiens (Human), UniProt P08684); assay: CYP3A4 inhibition study; format: in vitro ADME; conditions: for inhibition at 5 μM / inhibition at 15 µM: human; for inhibition at 5 μM: read-out: % Inh (inhibition at 5 μM reported instead); for inhibition at 15 µM: read-out: 15 μM % Inh
Description: Assessment of certain in vitro ADME (absorption, distribution, metabolism, and excretion) parameters for certain compounds of the invention was conducted by BioFocus (Saffron Walden, UK).

[6] = tested on: Salmonella typhimurium strain TA100; assay: Mutagenicity assessment (bacterial reverse mutation screen); format: cell-based; conditions: strain TA100, presence or absence of S-9 mix, up to 1000 μg/plate analysable
Description: (§1) Studies were conducted by Sequani (Ledbury, Herefordshire, UK) to assess compounds of the invention for their ability to induce mutations in two histidine dependent auxotrophic mutants of Salmonella typhimurium, strains TA98 and TA100 in vitro.
(§2) The mutation screen was conducted using the plate incorporation method and was performed in both the presence and absence of S-9 mix (a liver post-mitochondrial fraction derived from the livers of Aroclor 1254 treated rats). The bacteria were exposed to test compounds dissolved in dimethylsulphoxide, which solvent was also used as the negative control. The dose levels used were 0.32, 1.6, 8, 40, 200, 1000 or 5000 μg/plate.
(§3) Precipitation was also noted in both strains at 1000 μg/plate in the presence and absence of S-9 mix.

[7] = tested on: Salmonella typhimurium strain TA98; assay: as above; format: cell-based; conditions: strain TA98, presence or absence of S-9 mix, up to 1000 μg/plate analysable
Description: as §1, §2, §3

[8] = tested on: non-mutant kinases; format: binding; conditions: for KinomeScan Selectivity Score S(10): (number of non-mutant kinases with % Ctrl <10)/(number of non-mutant kinases tested); for KinomeScan Selectivity Score S(35): (number of non-mutant kinases with % Ctrl <35)/(number of non-mutant kinases tested); for number of individual kinase hits, S(1): non-mutant kinases with % Ctrl <1; for number of individual kinase hits, S(10): non-mutant kinases with % Ctrl <10; for number of individual kinase hits, S(35): non-mutant kinases with % Ctrl <35
Description: These assays may be conducted by DiscoverX (formerly Ambit; San Diego, Calif.). The percentage inhibition produced by incubation with a test compound may be calculated relative to the non-inhibited control.

[9] = 1 mg/kg, adoptive transfer mouse model
[10] = male, Wistar, rat, plasma, po, 5 mg/kg
[11] = male, Wistar, rat, plasma, rats, intravenous 0.25 mg/kg
[12] = male, Wistar, rat, plasma, rats
[13] = 3 mg/kg, adoptive transfer mouse model

Chain of CYP3A4 (P08684 whole entry): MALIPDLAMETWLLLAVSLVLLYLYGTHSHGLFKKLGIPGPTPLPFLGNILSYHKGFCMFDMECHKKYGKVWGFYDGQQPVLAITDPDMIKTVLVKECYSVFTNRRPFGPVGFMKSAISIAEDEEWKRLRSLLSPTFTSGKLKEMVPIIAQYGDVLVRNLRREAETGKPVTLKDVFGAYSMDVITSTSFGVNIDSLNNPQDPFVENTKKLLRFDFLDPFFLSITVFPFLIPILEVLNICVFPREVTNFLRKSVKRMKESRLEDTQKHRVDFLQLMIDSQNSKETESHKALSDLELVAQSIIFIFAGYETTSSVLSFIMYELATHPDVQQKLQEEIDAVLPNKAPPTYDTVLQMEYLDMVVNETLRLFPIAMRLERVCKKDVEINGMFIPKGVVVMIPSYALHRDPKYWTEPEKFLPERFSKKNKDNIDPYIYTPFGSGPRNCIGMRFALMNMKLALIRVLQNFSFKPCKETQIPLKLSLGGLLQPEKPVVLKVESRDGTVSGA
Chain of p38 MAPKα (MAPK14) (Q16539 whole entry): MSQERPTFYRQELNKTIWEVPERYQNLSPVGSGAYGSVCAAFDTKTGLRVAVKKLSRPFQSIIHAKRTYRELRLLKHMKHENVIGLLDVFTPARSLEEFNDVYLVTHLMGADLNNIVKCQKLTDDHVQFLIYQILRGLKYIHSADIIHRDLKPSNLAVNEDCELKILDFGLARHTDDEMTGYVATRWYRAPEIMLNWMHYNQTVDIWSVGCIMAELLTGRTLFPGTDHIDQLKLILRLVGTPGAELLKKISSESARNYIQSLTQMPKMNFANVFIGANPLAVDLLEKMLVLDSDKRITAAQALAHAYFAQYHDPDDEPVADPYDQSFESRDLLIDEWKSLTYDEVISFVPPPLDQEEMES

In the case of `COCCOCCOCCOc1cc(Nc2nccc(Oc3ccc(NC(=O)Nc4cc(C(C)(C)C)cc(NS(C)(=O)=O)c4OC)c4ccccc34)n2)cc(OC)c1` [Example 4, N-(5-(tert-Butyl)-2-methoxy-3-(3-(4-((2-((3-methoxy-5-(2-(2-(2-methoxyethoxy)ethoxy)-ethoxy)phenyl)amino)pyrimidin-4-yl)oxy)naphthalen-1-yl)ureido)phenyl)methanesulfonamide], the IC50 [1] is reported as 91 nM, the “inflammatory cell infiltrate in the reticular and laminar propria zones” value (from here on “inflammatory cell infiltrate”) [2] is reported as “marked reduction” and the “ulcer grade and epithelial repair compared to the vehicle control” value [2] is reported as “marked improvements”. The LP inflammation ([2]; 1 mg/kg oral) was 2.6 ± 0.3, the Ulcer grade ([2]; 1 mg/kg oral) was 3.6 ± 0.4 and the “activity in in vivo model of colonic inflammation (histopathology analysis)” value (shortened to “activity … (histopathology analysis)”) [2] was “substantial activity”. The “Colon weight:length” value ([3]; 0.3 mg/kg BID oral gavage, adoptive transfer mouse model) was 0.030 ± 0.008, the “% Inhibition (of the induction window between naïve and vehicle animals)” value (“% Inhibition” below) ([3]; 0.3 mg/kg BID oral gavage) was 62% and the “Colon weight:length” value ([3]; 1 mg/kg BID oral gavage, adoptive transfer mouse model) was 0.020 ± 0.002. The “% Inhibition” value ([3]; 1 mg/kg BID oral gavage) was 110%, the “IFNγ level in colon tissue” value [3, 9] was 2.8 ± 0.8 pg/mL and the “IL-8 level in colon tissue” value [3, 9] was 53.3 ± 23.0 pg/mL. The “levels of pro-inflammatory cytokines in samples of colon tissue” value (“levels of pro-inflammatory cytokines” below) ([3]; adoptive transfer mouse model) was “significantly reduced”, the AUC(0-inf) [4, 10] was 40.8 ng·h/mL and the AUC(0-t) [4, 10] was 27 ng·h/mL. For the same compound, the Cmax [4, 10] was 15.5 ng/mL, the Tmax [4, 10] was 30 min and the AUC(0-inf) [4, 11] was 563 ng·h/mL. The AUC(0-t) [4, 11] was 558 ng·h/mL, the half-life [4, 11] was 48 min and the C0 [4, 12] was 3040 ng/mL. For the same compound, the Vd [4, 11] was 0.2 L/kg, the CI ([4]; rats, intravenous 0.25 mg/kg) was 7.9 mL/min/kg and the Fpo ([4]; rats) was 0.2%. For the same compound, the IC50 ([5]; CYP3A4, 0 min preincubation) was greater than 5000 nM, the IC50 ([5]; CYP3A4, 30 min preincubation) was 2700 nM and the inhibition at 5 μM ([5]; CYP3A4, 0 min preincubation) was 9%. For the same compound, the inhibition at 5 μM ([5]; CYP3A4, 30 min preincubation) was 58%, the “increases in revertant colonies” value [6] was “no dose-related or statistically significant increases” and the “increases in revertant colonies” value [7] was “no dose-related or statistically significant increases”.
With `C#Cc1cc(Nc2nccc(Oc3ccc(NC(=O)Nc4cc(C(C)(C)C)cc(NS(C)(=O)=O)c4OC)c4ccccc34)n2)cc(C(=O)NCCOCCOCCOC)c1` [Example 16] the “KinomeScan Selectivity Score S(10)” value ([8]; 50 nM) was 0.023, the “KinomeScan Selectivity Score S(35)” value ([8]; 50 nM) was 0.068 and the “number of individual kinase hits, S(1)” value ([8]; 50 nM) was 0. For the same compound, the “number of individual kinase hits, S(10)” value ([8]; 50 nM) was 9, the “number of individual kinase hits, S(35)” value ([8]; 50 nM) was 27 and the “KinomeScan Selectivity Score S(1)” value ([8]; 500 nM, (number of non-mutant kinases with % Ctrl <1)/(number of non-mutant kinases tested)) was 0.038. For the same compound, the “KinomeScan Selectivity Score S(10)” value ([8]; 500 nM) was 0.129, the “KinomeScan Selectivity Score S(35)” value ([8]; 500 nM) was 0.197 and the “number of individual kinase hits, S(1)” value ([8]; 500 nM) was 15. For the same compound, the “number of individual kinase hits, S(10)” value ([8]; 500 nM) was 51, the “number of individual kinase hits, S(35)” value ([8]; 500 nM) was 78 and the “selectivity compared to the Reference Compound” value ([8]; as evidenced by lower selectivity scores) was “substantially improved selectivities”. For the same compound, the “inflammatory cell infiltrate” value [2] was “marked reduction”, the “ulcer grade and epithelial repair compared to the vehicle control” value [2] was “marked improvements” and the “activity … (histopathology analysis)” value [2] was “substantial activity”. The “activity in T cell driven in vivo model of colonic inflammation (relative ratios of colon weight to length)” value ([3]; adoptive transfer mouse model) was “significant activity”, the “levels of pro-inflammatory cytokines” value ([3]; adoptive transfer mouse model) was “significantly reduced” and the Fpo ([4]; rats) was 0.0%. For the same compound, the “15 μM % Inh” value ([5]; CYP3A4, 0 min preincubation) was 31%, the “15 μM % Inh” value ([5]; CYP3A4, 30 min preincubation) was 54% and the “increases in revertant colonies” value [6] was “no dose-related or statistically significant increases”. The “increases in revertant colonies” value [7] was “no dose-related or statistically significant increases”.
In the case of `COc1cc(Nc2cc(Oc3ccc(NC(=O)Nc4cc(C(C)(C)C)cc(NS(C)(=O)=O)c4OC)c4ccccc34)ccn2)cc(C(=O)NCCN2CCOCC2)c1` [Example 27], the IC50 [1] is reported as 41 nM, the “inflammatory cell infiltrate” value [2] is reported as “marked reduction” and the “ulcer grade and epithelial repair compared to the vehicle control” value [2] is reported as “marked improvements”. The LP inflammation ([2]; 5 mg/kg oral) was 3.2 ± 0.4, the Ulcer grade ([2]; 5 mg/kg oral) was 3.3 ± 0.5 and the “activity … (histopathology analysis)” value [2] was “substantial activity”. For the same compound, the “Colon weight:length” value ([3]; 3 mg/kg BID oral gavage, adoptive transfer mouse model) was 0.022 ± 0.002, the “% Inhibition” value ([3]; 3 mg/kg BID oral gavage) was 99% and the “IFNγ level in colon tissue” value [3, 13] was 19.1 ± 6.5 pg/mL. For the same compound, the “IL-8 level in colon tissue” value [3, 13] was 131.1 ± 56.1 pg/mL, the “levels of pro-inflammatory cytokines” value ([3]; adoptive transfer mouse model) was “significantly reduced” and the “Colon weight:length” value ([3]; adoptive transfer mouse model, 0.03 mg/kg BID oral) was 0.047 ± 0.005. For the same compound, the “Colon weight:length” value ([3]; adoptive transfer mouse model, 0.3 mg/kg BID oral) was 0.038 ± 0.004, the “Colon weight:length” value ([3]; adoptive transfer mouse model, 3 mg/kg BID oral) was 0.034 ± 0.003 and the AUC(0-inf) [4, 11] was 590 ng·h/mL. It also gave an AUC(0-t) [4, 11] of 588 ng·h/mL, a half-life [4, 11] of 48 min and a C0 [4, 12] of 3880 ng/mL. It also gave a Vd [4, 11] of 0.1 L/kg, a CI ([4]; rats, intravenous 0.25 mg/kg) of 7.1 mL/min/kg and a Fpo ([4]; rats) of 0.0%. For the same compound, the IC50 ([5]; CYP3A4, 0 min preincubation) was greater than 15000 nM, the IC50 ([5]; CYP3A4, 30 min preincubation) was 8900 nM and the inhibition at 15 µM ([5]; CYP3A4, 0 min preincubation) was 19%. The inhibition at 15 µM ([5]; CYP3A4, 30 min preincubation) was 57%, the “increases in revertant colonies” value [6] was “no dose-related or statistically significant increases” and the “increases in revertant colonies” value [7] was “no dose-related or statistically significant increases”.
